Key:
Granta-519 [1] = assay: Induction of apoptosis in human Granta-519 cells assessed as viable cells at 500 nM incubated for 48 hrs by Annexin-V-FITC/propidium iodide staining based flow cytometry (reference value: 92.7 %); assay type: functional; details: read-out: Activity
Granta-519 [2] = assay: Induction of apoptosis in human Granta-519 cells assessed as viable cells at 1000 nM incubated for 48 hrs by Annexin-V-FITC/propidium iodide staining based flow cytometry (reference value: 92.7 %); assay type: functional; details: read-out: Activity
[3] = Toxicity in BALB/c mouse xenografted with human CAPAN-1 cells assessed as change in body weight at 50 mg/kg,po once daily for 3 weeks administrated 4 days weekly in presence of gemcitabine; assay type: organism-based; details: in vivo, 504 h
[4] = Acute toxicity in Beagle dog assessed as change in body weight at 10 to 90 mg/kg,po once daily for 7 days; assay type: organism-based, Canis lupus familiaris; details: in vivo, 168 h, dose 10-90 mg/kg, time 7 day
CYP1A2 = CYP1A2 (Homo sapiens, UniProt P05177); assay: Time dependent inhibition of CYP1A2 (unknown origin) at 10 uM relative to control; assay type: ADME; details: read-out: TDI
[5] = target: Tyrosine-protein kinase Lyn (Homo sapiens, UniProt P07948); assay: Inhibition of human LYN
[6] = target: Tyrosine-protein kinase Mer (Homo sapiens, UniProt Q12866); assay: Inhibition of human MER
[7] = Toxicity in CB17-SCID mouse xenografted with human Granta-519 cells assessed as change in body weight at 50 mg/kg,po bid for 3 weeks administrated 5 days weekly; assay type: organism-based; details: in vivo, 504 h
[8] = target: Receptor-type tyrosine-protein kinase FLT3 (Homo sapiens, UniProt P36888); assay: Inhibition of human FLT3
[9] = Toxicity in BALB/c mouse xenografted with human PC-3 cells assessed as change in body weight at 50 mg/kg,po bid for 3 weeks administrated 5 days weekly; assay type: organism-based; details: in vivo, 504 h
[10] = Acute toxicity in Beagle dog assessed as change in platelet count at 10 to 90 mg/kg,po once daily for 7 days; assay type: organism-based, Canis lupus familiaris; details: in vivo, 168 h, dose 10-90 mg/kg, time 7 day
[11] = target: Tyrosine-protein kinase JAK1 (Homo sapiens, UniProt P23458); assay: Inhibition of human JAK1
[12] = Toxicity in BALB/c mouse xenografted with human HT-29 cells assessed as change in body weight at 50 mg/kg,po once daily for 4 weeks in presence of 3 Gy of ionizing radiation; assay type: organism-based; details: in vivo, 672 h
[13] = Plasma protein binding in mouse; assay type: ADME, cell-free; details: read-out: PPB (converted)
[14] = target: Interleukin-1 receptor-associated kinase 4 (Homo sapiens, UniProt Q9NWZ3); assay: Inhibition of human IRAK4
[15] = target: Tyrosine-protein kinase Lck (Homo sapiens, UniProt P06239); assay: Inhibition of human LCK
[16] = Half life in ICR mouse at 50 mg/kg,po measured upto 24 hrs by LC-MS/MS analysis; assay type: ADME, organism-based; details: in vivo
[17] = Acute toxicity in Beagle dog assessed as change in serum creatinine level at 10 to 90 mg/kg,po once daily for 7 days; assay type: organism-based, Canis lupus familiaris; details: in vivo, 168 h, dose 10-90 mg/kg, time 7 day
[18] = target: Serine/threonine-protein kinase BRSK2 (Homo sapiens, UniProt Q8IWQ3); assay: Inhibition of human BRSK2
CYP2C9 = CYP2C9 (Homo sapiens, UniProt P11712); assay: Time dependent inhibition of CYP2C9 (unknown origin) at 10 uM relative to control; assay type: ADME; details: read-out: TDI
Sequence of CYP2C9 (P11712 whole entry): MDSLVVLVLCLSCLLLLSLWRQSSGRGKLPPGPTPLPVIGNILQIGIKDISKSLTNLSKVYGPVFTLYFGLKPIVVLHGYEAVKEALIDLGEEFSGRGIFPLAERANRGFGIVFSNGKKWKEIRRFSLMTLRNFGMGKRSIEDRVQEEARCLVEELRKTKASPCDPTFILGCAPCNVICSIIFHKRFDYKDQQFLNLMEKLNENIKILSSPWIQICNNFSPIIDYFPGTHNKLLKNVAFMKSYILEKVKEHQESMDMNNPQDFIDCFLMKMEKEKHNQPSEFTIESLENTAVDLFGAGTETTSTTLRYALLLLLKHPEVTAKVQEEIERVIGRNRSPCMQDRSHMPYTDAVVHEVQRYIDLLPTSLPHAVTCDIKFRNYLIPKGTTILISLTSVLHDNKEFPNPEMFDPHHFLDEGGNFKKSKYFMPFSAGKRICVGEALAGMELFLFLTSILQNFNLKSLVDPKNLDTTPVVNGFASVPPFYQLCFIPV

[19] = Toxicity in CB17-SCID mouse xenografted with human Granta-519 cells assessed as change in body weight at 50 mg/kg,po once daily for 3 weeks administrated 5 days weekly in presence of niraparib; assay type: organism-based; details: in vivo, 504 h
[20] = Cmax in ICR mouse at 50 mg/kg,po measured upto 24 hrs by LC-MS/MS analysis; assay type: ADME, organism-based; details: in vivo
CYP2D6 = CYP2D6 (Homo sapiens, UniProt P10635); assay: Time dependent inhibition of CYP2D6 (unknown origin) at 10 uM relative to control; assay type: ADME; details: read-out: TDI
[21] = Brain to plasma ratio in ICR mouse at 50 mg/kg,po measured upto 24 hrs by LC-MS/MS analysis; assay type: ADME, organism-based
[22] = Toxicity in BALB/c mouse xenografted with human A2780 cells assessed as change in body weight at 50 mg/kg,po bid for 3 weeks administrated 5 days weekly; assay type: organism-based; details: in vivo, 504 h
[23] = target: NUAK family SNF1-like kinase 1 (Homo sapiens, UniProt O60285); assay: Inhibition of human ARK5
Sequence of NUAK family SNF1-like kinase 1 (O60285 whole entry): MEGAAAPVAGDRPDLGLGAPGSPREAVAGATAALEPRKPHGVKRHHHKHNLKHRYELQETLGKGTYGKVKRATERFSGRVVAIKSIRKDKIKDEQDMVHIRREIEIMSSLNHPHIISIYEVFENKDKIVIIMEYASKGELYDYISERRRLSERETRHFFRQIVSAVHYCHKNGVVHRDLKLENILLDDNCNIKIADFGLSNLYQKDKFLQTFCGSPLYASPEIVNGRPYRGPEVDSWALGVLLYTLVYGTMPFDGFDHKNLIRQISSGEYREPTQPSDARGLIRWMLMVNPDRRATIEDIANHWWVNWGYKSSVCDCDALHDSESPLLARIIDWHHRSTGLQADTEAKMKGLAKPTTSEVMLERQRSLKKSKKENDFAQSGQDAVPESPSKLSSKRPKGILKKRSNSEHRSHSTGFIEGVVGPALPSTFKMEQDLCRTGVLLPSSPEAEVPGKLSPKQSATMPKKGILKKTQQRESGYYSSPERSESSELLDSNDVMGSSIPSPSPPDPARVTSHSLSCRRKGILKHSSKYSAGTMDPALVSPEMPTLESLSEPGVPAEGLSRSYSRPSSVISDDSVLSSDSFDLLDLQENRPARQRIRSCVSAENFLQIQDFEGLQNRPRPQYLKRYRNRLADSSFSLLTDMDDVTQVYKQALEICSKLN

[24] = Apparent permeability across basolateral to apical side in dog MDCK-MDR1 cells; assay type: ADME, cell-based, Canis lupus familiaris
AMPK alpha2/beta1/gamma1 = AMPK alpha2/beta1/gamma1 (Homo sapiens, UniProt P54619+P54646+Q9Y478); assay: Inhibition of human AMPK alpha2/beta1/gamma1; assay type: protein-complex assay
[25] = target: Cyclin-dependent kinase 2 (Homo sapiens, UniProt P24941); assay: Inhibition of human CDK2
[26] = target: Tyrosine-protein kinase BTK (Homo sapiens, UniProt Q06187); assay: Inhibition of human BTK
ATR/ATRIP = ATR/ATRIP (Homo sapiens, UniProt Q13535); assay: Inhibition of ATR/ATRIP (unknown origin) using 5-FAM-AK-17 as substrate preincubated with compound for 10 mins followed by ATP addition and measured after 240 mins by mobility shift assay; assay type: protein-complex assay
Sequence of ATR/ATRIP (Q13535 whole entry): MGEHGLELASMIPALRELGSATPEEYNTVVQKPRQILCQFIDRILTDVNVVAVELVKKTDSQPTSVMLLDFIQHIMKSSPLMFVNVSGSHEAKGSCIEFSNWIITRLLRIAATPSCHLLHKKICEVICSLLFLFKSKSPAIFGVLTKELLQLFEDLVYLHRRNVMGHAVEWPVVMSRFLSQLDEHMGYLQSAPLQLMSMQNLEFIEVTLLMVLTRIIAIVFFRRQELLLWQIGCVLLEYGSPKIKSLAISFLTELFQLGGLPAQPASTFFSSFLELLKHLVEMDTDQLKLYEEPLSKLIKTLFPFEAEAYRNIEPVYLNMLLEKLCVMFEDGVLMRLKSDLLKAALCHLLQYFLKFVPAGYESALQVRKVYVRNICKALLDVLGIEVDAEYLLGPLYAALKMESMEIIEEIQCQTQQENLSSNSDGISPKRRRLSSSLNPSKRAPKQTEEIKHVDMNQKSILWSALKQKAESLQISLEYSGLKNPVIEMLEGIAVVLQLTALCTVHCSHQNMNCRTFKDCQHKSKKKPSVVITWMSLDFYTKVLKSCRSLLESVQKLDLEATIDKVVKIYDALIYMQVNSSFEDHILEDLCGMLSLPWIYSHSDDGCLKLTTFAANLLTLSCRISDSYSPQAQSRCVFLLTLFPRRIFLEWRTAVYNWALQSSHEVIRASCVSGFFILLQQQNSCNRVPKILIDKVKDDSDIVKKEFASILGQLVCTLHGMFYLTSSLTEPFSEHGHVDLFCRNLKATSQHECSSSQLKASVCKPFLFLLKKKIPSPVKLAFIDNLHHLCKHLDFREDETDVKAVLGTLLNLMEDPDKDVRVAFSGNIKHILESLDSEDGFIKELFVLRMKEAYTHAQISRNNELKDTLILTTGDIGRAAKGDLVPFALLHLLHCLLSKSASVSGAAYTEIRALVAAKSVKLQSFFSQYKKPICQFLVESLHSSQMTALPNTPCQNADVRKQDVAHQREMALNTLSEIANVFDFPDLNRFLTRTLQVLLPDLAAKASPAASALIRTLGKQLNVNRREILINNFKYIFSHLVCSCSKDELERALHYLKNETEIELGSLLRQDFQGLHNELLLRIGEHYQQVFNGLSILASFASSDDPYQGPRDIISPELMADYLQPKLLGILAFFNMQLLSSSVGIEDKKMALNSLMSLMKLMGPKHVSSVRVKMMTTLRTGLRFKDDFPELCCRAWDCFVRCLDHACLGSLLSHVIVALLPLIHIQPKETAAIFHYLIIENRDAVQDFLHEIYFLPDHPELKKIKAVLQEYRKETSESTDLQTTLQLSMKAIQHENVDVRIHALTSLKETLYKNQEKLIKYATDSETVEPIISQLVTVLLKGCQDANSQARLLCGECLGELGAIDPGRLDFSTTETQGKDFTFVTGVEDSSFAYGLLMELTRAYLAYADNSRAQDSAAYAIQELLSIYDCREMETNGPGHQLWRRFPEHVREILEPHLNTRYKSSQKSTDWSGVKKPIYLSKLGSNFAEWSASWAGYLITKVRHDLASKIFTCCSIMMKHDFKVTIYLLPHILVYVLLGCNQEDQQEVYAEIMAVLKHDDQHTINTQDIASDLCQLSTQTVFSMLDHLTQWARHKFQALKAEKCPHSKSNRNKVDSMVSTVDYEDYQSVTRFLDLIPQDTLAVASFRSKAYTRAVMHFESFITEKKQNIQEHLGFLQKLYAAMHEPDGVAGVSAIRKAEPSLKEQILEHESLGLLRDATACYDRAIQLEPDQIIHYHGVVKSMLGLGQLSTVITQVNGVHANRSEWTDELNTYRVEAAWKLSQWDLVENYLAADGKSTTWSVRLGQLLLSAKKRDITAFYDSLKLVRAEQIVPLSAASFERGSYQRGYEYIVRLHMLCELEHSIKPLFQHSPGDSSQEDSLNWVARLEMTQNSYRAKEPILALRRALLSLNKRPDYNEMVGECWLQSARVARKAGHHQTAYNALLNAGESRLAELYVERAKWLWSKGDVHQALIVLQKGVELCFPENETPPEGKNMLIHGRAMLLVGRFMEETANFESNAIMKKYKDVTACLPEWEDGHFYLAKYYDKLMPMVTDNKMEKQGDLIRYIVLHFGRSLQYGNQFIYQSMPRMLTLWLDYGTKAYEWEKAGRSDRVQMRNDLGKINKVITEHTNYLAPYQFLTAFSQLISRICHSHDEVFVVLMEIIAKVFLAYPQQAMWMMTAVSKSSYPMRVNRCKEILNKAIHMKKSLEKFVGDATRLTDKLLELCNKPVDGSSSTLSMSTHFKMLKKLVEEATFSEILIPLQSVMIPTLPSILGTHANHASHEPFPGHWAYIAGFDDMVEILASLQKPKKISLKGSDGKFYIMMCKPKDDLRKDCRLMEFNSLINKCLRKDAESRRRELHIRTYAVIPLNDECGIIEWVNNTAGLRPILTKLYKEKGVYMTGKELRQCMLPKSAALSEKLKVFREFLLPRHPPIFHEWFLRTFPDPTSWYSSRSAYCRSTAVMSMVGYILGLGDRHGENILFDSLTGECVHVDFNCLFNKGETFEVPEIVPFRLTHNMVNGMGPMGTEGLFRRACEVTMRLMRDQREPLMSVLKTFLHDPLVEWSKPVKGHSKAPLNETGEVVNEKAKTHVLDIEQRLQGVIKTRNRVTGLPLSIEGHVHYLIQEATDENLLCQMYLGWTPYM
Sequence of ATR/ATRIP (Q8WXE1 whole entry, further chain): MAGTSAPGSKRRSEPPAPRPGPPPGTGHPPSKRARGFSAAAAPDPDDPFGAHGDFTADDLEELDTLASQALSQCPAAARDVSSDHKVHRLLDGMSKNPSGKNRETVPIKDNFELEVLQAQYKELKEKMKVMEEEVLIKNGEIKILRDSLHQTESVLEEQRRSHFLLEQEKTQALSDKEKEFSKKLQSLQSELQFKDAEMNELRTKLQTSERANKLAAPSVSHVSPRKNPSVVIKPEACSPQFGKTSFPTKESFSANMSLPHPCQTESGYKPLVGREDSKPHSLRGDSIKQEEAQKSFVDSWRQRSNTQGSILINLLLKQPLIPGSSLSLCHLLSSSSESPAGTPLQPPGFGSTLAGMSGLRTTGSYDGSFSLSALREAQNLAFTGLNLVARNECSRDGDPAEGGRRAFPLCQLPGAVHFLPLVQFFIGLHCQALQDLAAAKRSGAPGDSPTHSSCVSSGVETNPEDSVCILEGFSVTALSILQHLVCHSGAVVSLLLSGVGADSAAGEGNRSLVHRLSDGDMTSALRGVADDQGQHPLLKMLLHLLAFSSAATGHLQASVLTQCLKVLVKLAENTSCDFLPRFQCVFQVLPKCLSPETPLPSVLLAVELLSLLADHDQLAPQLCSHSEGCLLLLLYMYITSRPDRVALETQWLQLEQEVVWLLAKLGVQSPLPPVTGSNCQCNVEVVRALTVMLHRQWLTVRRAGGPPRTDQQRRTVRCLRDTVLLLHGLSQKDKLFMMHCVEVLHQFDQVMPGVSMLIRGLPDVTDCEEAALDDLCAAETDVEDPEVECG

CYP3A4 = CYP3A4 (Homo sapiens, UniProt P08684); assay: Time dependent inhibition of CYP3A4 (unknown origin) at 10 uM relative to control; assay type: ADME; details: read-out: TDI
Granta-519 [27] = assay: Induction of apoptosis in human Granta-519 cells assessed as viable cells at 2000 nM incubated for 48 hrs by Annexin-V-FITC/propidium iodide staining based flow cytometry (reference value: 92.7 %); assay type: functional; details: read-out: Activity
[28] = target: Serine/threonine-protein kinase 17B (Homo sapiens, UniProt O94768); assay: Inhibition of human DRAK2
Sequence of Serine/threonine-protein kinase 17B (O94768 whole entry): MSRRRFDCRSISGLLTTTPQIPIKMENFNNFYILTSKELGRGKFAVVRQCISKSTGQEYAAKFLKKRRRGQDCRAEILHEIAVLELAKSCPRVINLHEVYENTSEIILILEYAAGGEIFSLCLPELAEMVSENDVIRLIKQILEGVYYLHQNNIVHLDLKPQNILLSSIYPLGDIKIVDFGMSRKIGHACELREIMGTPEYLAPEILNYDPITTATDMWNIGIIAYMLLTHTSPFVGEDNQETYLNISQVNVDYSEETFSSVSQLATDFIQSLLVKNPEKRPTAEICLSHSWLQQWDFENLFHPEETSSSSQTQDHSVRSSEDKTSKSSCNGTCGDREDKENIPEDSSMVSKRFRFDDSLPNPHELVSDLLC

[29] = target: Serine/threonine-protein kinase mTOR (Homo sapiens, UniProt P42345); assay: Inhibition of human mTOR
CYP2C19 = CYP2C19 (Homo sapiens, UniProt P33261); assay: Time dependent inhibition of CYP2C19 (unknown origin) at 10 uM relative to control; assay type: ADME; details: read-out: TDI
[30] = Tmax in ICR mouse at 50 mg/kg,po measured upto 24 hrs by LC-MS/MS analysis; assay type: ADME, organism-based; details: in vivo
[31] = target: Serine/threonine-protein kinase ATR (Homo sapiens, UniProt Q13535); assay: Inhibition of human ATR
Sequence of Serine/threonine-protein kinase ATR (Q13535 whole entry): as the sequence (Q13535 whole entry) above

[32] = target: Serine-protein kinase ATM (Homo sapiens, UniProt Q13315); assay: Inhibition of human ATM
[33] = target: DNA-dependent protein kinase catalytic subunit (Homo sapiens, UniProt P78527); assay: Inhibition of human DNA-PK
[34] = AUClast in ICR mouse at 50 mg/kg,po measured upto 24 hrs by LC-MS/MS analysis; assay type: ADME, organism-based; details: in vivo
[35] = Apparent permeability across apical to basolateral side in dog MDCK-MDR1 cells; assay type: ADME, cell-based, Canis lupus familiaris
[36] = AUCinfinity in ICR mouse at 50 mg/kg,po measured upto 24 hrs by LC-MS/MS analysis; assay type: ADME, organism-based; details: in vivo
[37] = target: Phosphatidylinositol 4,5-bisphosphate 3-kinase catalytic subunit alpha isoform (Homo sapiens, UniProt P42336); assay: Inhibition of human PI3Kalpha
Aurora kinase B = Aurora kinase B (Homo sapiens, UniProt Q96GD4); assay: Inhibition of human Aurora B
[38] = Apparent permeability across apical to basolateral side in human Caco-2 cells; assay type: ADME, cell-based
[39] = Apparent permeability across basolateral to apical side in human Caco-2 cells; assay type: ADME, cell-based
[40] = Lipophilicity, logD of compound at pH 7.4; assay type: physicochemical; details: buffer

SMILES: C[C@@H]1COCCN1c1nc(-c2ccnc3[nH]ccc23)nc2c1ccn2S(C)(=O)=O
- viability at 0.5 µM (Granta-519 [1]): 89.6%
- viability at 1 µM (Granta-519 [2]): 81.3%
- Activity [3]: Toxic
- Activity [4]: Non-Toxic
- inhibition at 10 µM (CYP1A2): 37.5%
- IC50 [5]: > 10 µM
- IC50 [6]: > 10 µM
- Activity [7]: Toxic
- IC50 [8]: > 10 µM
- Activity [9]: Toxic
- Activity [10]: Toxic
- IC50 [11]: > 10 µM
- Activity [12]: Toxic
- fraction unbound [13]: 0.005
- IC50 [14]: > 10 µM
- IC50 [15]: 2.59 µM
- half-life [16]: 2.29 h
- Activity [17]: Toxic
- IC50 [18]: > 10 µM
- inhibition at 10 µM (CYP2C9): 7.09%
- Activity [19]: Toxic
- Cmax [20]: 19800 ng/mL
- inhibition at 10 µM (CYP2D6): 2%
- BPR [21]: 31%
- Activity [22]: Toxic
- IC50 [23]: 7.31 µM
- Papp B→A [24]: 51.2 ×10⁻⁶ cm/s
- IC50 (AMPK alpha2/beta1/gamma1): > 10 µM
- IC50 [25]: > 10 µM
- IC50 [26]: > 10 µM
- IC50 (ATR/ATRIP): 0.0016 µM
- inhibition at 10 µM (CYP3A4): 21.2%
- viability at 2 µM (Granta-519 [27]): 76.9%
- IC50 [28]: > 10 µM
- IC50 [29]: 0.0458 µM
- inhibition at 10 µM (CYP2C19): 12.1%
- Tmax [30]: 1 h
- IC50 [31]: 0.0025 µM
- IC50 [32]: 3.21 µM
- IC50 [33]: 0.119 µM
- AUC(0-t) at 24 h [34]: 140 µg·h/mL
- Papp A→B [35]: 41.9 ×10⁻⁶ cm/s
- AUC(0-inf) [36]: 140 µg·h/mL
- IC50 [37]: 2.06 µM
- IC50 (Aurora kinase B): > 10 µM
- Papp A→B [38]: 39.6 ×10⁻⁶ cm/s
- Papp B→A [39]: 32.5 ×10⁻⁶ cm/s
- logD [40]: 3.61

— ChEMBL document CHEMBL5523766 (J Med Chem, 2024)
